No end group written: not given here.
Legend:
[1] = test system: Rat bone marrow-derived stem cells (mesenchymal stem cells); experiment: Evaluation of cell growth-promoting activity, WST-8 colorimetric method (Example 5); assay type: cell-based; conditions: WST-8 absorbance at 450 nm, peptide approximately 2 μM, bFGF 10 ng/mL; for OD450 at the start of cultivation: day 0; for OD450 after 4 days: day 4
Protocol: (§1) Experimental sections were set up that used the cell growth-promoting peptides obtained in Example 4 (samples 22 to 42) as a cell growth promoter and that used a commercially available bFGF as a cell growth promoter as a comparative example. For the control, a peptide-free section (the bFGF was also not added) was set up.
(§2) The details of the evaluation testing are provided below. Each synthesized sample peptide was dissolved in PBS (phosphate-buffered physiological saline) to prepare a stock solution with a peptide concentration of 1 mM.
(§3) Rat bone marrow-derived stem cells (mesenchymal stem cells) were used as the test cells. Specifically, the test stem cells were cultured by passage on Dulbecco's MEM medium (DMEM medium: Gibco product) containing 10% fetal bovine serum (FBS: Gibco product), 2 mM of L-glutamine, 50 unit/mL of penicillin, and 50 μg/mL of streptomycin. From the second passage to the fourth passage (passages 2 to 4) were used in this evaluation testing.
(§4) Thus, the test stem cells were preliminarily recovered by treatment with a 0.05% trypsin-0.53 mM EDTA solution; a test stem cell solution, prepared with the DMEM medium containing 10 ng/mL of bFGF to provide 1×10^4 cells/mL, was seeded to each well of a 96-well plate to provide a cell count of 1×10^3 per well; and pre-cultivation was carried out overnight. The amount of medium was brought to 100 μL per well for this.
(§5) The medium in each well was then exchanged for fresh medium to which a stock solution of a peptide selected from sample 22 to 42 had been added, so as to give a concentration of the peptide in each well of approximately 2 μM. For comparison, in some wells the medium in the well was exchanged for fresh medium to which a commercially available bFGF (product of PeproTech) had been added to give a concentration of 10 ng/mL (the bFGF experimental section in Table 6).
(§6) After the addition of the sample peptide or bFGF as indicated above, the 96-well plate was placed in a CO2 incubator and cultivation at quiescence was carried out at 37° C. under 5% CO2. Medium exchange was performed every other day. The exchange medium was the same as that used at the start of cultivation (i.e., the same sample peptide or bFGF was also added to the exchange medium as in the sample peptide addition section or bFGF addition section).
During this cultivation test, a “water-soluble tetrazolium salt (WST-8)” was added as a chromogenic reagent to some wells at the start of cultivation (day 0) and at four days after the start of cultivation (day 4). After incubation for 2 hours after the addition, the cell culture fluid to which the chromogenic reagent had been added was recovered. The extent of cell growth was evaluated by a colorimetric method in which, based on reduction of the tetrazolium salt, the absorbance (OD450) at a wavelength of 450 nm was measured.

[2] = test system: Rat bone marrow-derived stem cells (mesenchymal stem cells); experiment: Evaluation of cell growth-promoting activity, WST-8 colorimetric method (Example 2); assay type: cell-based; conditions: WST-8 absorbance at 450 nm, peptide approximately 2 μM, bFGF 10 ng/mL
Protocol: as §1, with “1” for “4”, “1” for “22”, “21)” for “42)”
as §2, §3, §4
as §5, with “1” for “22”, “21” for “42”, “3).” for “6).”
as §6
During this cultivation test, a “water-soluble tetrazolium salt (WST-8)” was added as a chromogenic reagent to some wells at the start of cultivation (day 0), at two days after the start of cultivation (day 2), and at four days after the start of cultivation (day 4). After incubation for 2 hours after the addition, the cell culture fluid to which the chromogenic reagent had been added was recovered. The extent of cell growth was evaluated by a colorimetric method in which, based on reduction of the tetrazolium salt, the absorbance (OD450) at a wavelength of 450 nm was measured.

Substance	OD450 at the start of cultivation [1]	OD450 after 4 days [1]	OD450 at the start of cultivation ([2]; day 0)	OD450 after 2 days ([2]; day 2)	OD450 after 4 days ([2]; day 4)
MLPGLALLLLAAWTGKKRTLRKNDRKKR (MLPGLALLLLAAWTGKKRTLRKNDRKKR-NH2) [compound 35]	0.051	0.299	–	–	–
MLPGLALLLLAGKKRTLRKNDRKKR (MLPGLALLLLAGKKRTLRKNDRKKR-NH2) [compound 38]	0.051	0.491	–	–	–
MLPGLALLLLGKKRTLRKNDRKKR (MLPGLALLLLGKKRTLRKNDRKKR-NH2) [sample 39]	0.051	0.538	–	–	–
PGLALLLLAAWTARAGKKRTLRKNDRKKR (PGLALLLLAAWTARAGKKRTLRKNDRKKR-NH2) [compound 23]	0.051	0.391	–	–	–
WTARAGKKRTLRKNDRKKR (WTARAGKKRTLRKNDRKKR-NH2) [compound 33]	0.051	0.407	–	–	–
basic fibroblast growth factor [bFGF, reference compound]	0.051	0.499	0.058	0.196	0.484
